From patent US10709724B2, “Methods of treating mitochondrial dysfunction” (Ecole Polytechnique Federale de Lausanne (EPFL), priority 2011, dated 2020)

Experiments:
[1] = test system: C2C12 myotubes, Hepa1.6 and HEK293T cells; assay: Total intracellular NAD+ content after NR in cell lines; assay type: cell-based, murine and human; conditions: 24 hrs
Description: Murine Hepa1.6 and HEK293T cells were maintained in 4.5 g/L glucose DMEM, 10% FCS. For the transfection of HEK293T cells JetPei was used (Polyplus transfections, Illkirch, France) according to the description of the company. PARP-2 depletion and overexpression took place as described in (Bai et al. 2007).
C2C12 cells were maintained in 4.5 g/L glucose DMEM, 10% FCS and were differentiated in 4.5 g/L glucose DMEM, 2% horse serum for 2 days, when cells were considered myofibers. PARP-2 was depleted from C2C12 cells using lentiviral shRNA system (MISSION Lentiviral Vectors, Sigma-Aldrich). The vectors contained the interfering and control sequences described in (Bai et al. 2007). C2C12 cells were transduced with 20 MOI virus and were selected with […] puromycin. Cells withstanding puromycin selection were subcultured. […] The efficiency of knock-down at the mRNA level was assessed by RT-qPCR.
NAD^+ NAM Determination. NAD^+ levels in cultured cells were determined using a commercial kit (Enzychrom™, BioAssays Systems, CA). For tissue samples NAD^+ and NAM levels were determined as described in (Sauve et al., 2005). […] Clear supernatant was injected onto HPLC C-18 column with 20 mM ammonium acetate eluent to separate NAD^+ and NAM from other cellular components, NAD^+ and NAM peaks (260 nm absorbance) were collected. […]

C57Bl/6J male mice = assay: PJ34 treatment of mice (5 days); assay type: in vivo; conditions: 10 mg/kg i.p. twice a day
Description: Animal Experiments. Male PARP-1^+/+ and PARP-1^−/− mice on a pure C57Bl/6J background (Menissier-de Murcia et al., 1997) were used. Mice were housed separately, had ad libitum access to water and standard rodent chow (10 kcal % of fat, Safe, Augy, France) or to a high calorie, high fat diet (60 kcal % of fat, Research. Diets, New Brunswick, N.J., USA), and were kept under a 12 h dark-light cycle. In other animal experiments, 8 weeks-old male C57Bl/6J mice were purchased from Charles River and powder chow (D12450B) and high fat (D12492) diets were from Research Diets Inc (New Brunswick, N.J., USA). 80 ml of water per kg of powder CD were used to make food pellets. 40 ml of water per kg of powder HFD were used to make food pellets. For NR, NMN and NA supplemented diets, the appropriate amount of these compounds was added to the water used to create the pellets, taking into account the differences in the daily intake of each diet. Mice were housed separately, had ad libitum access to water and food and were kept under a 12 h dark-light cycle. Mice were fed with homemade pellets from 10 weeks of age. To make the pellets, the powder food was mixed with water (vehicle) or with NR. All animal experiments were carried out according to local national and EU ethical guidelines. To monitor body weight, mice were weighed and the food consumption was measured each week on the same day. In case of PJ34 treatment, mice received each 12 h (at 7:00 and 19:00) 10 mg/kg PJ34 by intraperitoneal injection for 5 continuous days. In all studies animals were killed (at 14:00) either after CO2 inhalation or cervical dislocation after 6 h of fasting (starting at 8:00), and tissues were collected and processed as specified below. Oral glucose tolerance test, intraperitoneal insulin tolerance test, free fatty acid (FFA) and triglycerides were determined as described (Lagouge et al., 2006). Plasma insulin and was determined in heparinized plasma samples using specific ELISA kits (Mercodia). Blood samples were collected in heparinized tubes and plasma was isolated after centrifugation. Plasma parameters were measured using a Cobas c111 (Roche Diagnostics). Thermoadaptation was performed as described (Lagouge et al., 2006). We measured O2 consumption, CO2 production, and spontaneous locomotor activity in an open circuit indirect calorimetry system (Sabre systems, Las Vegas, Nev., USA) over 24-48 has described (Dali-Youcef et al., 2007; Lagouge et al., 2006; Watanabe et al., 2006). […] The respiratory quotient was the ratio of CO2 production over O2 consumption. During actimetry, beamline crossings were summarized each 15 minutes. […] Euglycemic-hyperinsulinemic clamps were performed in PARP-1^−/− and ^+/+ male mice (n=4 mice per genotype; age=4 months) exactly as previously described (Feige et al, 2008).
mRNA and mtDNA Analysis. Total RNA was prepared using TRIzol (Invitrogen) according to the manufacturer's instructions. RNA was treated with DNase, and 2 μg of RNA was used for reverse transcription (RT). cDNA was purified on QIAquick PCR cleanup columns (Qiagen, Valencia, Calif., USA). 50× diluted cDNA was used for RT-quantitative PCR (RT-VCR) VCR) reactions (Bai et al., 2007). The RT-qPCR reactions were performed using the Light-Cycler system (Roche Applied Science) and a qPCR Supermix (Qiagen) with the primers for mice summarized in Table 1 and 4, and with the primers for worms summarized on Table 7. mtDNA quantification was performed as described (Lagouge et al., 2006) with the primers indicated in Table 2 and 5.
Immunoprecipitation, SDS-PAGE, Western Blotting. Cells were lysed in lysis buffer (50 mM Tris, […], EDTA 1 mM, NP40 1%, nicotinamide 5 mM, Na-butyrate 1 in M, protease inhibitors pH7.4). Proteins were separated by SDS-PAGE and transferred onto nitrocellulose membranes. The origin of the primary and secondary antibodies used can be found as supplemental experimental procedures. […]

Compound: NC(=O)c1ccc[n+]([C@@H]2O[C@H](CO)[C@@H](O)[C@H]2O)c1 [NR, nicotinamide riboside]
- ability to increase intracellular NAD+ compared with NMN and NA ([1]; 0.5 mM): at least, similar to that of these other precursors
- intracellular NAD+ levels [1]: dose-dependently increased intracellular NAD^+ levels

Compound: CN(C)CC(=O)Nc1ccc2[nH]c(=O)c3ccccc3c2c1 [PJ34]
- Dio2 mRNA in BAT (C57Bl/6J male mice): significantly induced
- Myoglobin mRNA levels in muscle (C57Bl/6J male mice): increase in Myoglobin mRNA levels
- NAD+ levels in BAT and muscle (C57Bl/6J male mice): edged up in PJ34-treated animals, even though the increase was only statistically significant in muscle
- PARP activity in BAT and muscle (C57Bl/6J male mice): robustly decrease PARP activity
- PGC-1α acetylation levels in BAT and muscle (C57Bl/6J male mice): reduced PGC-1α acetylation levels
- mitochondrial gene expression in BAT and muscle (Ndufa2, Ndufa5, UCP2, UCP3) (C57Bl/6J male mice): tendency to a higher expression of a number of mitochondrial genes
- triglycerides (C57Bl/6J male mice; vehicle 1.21±0.08, p=0.08): 1.11 ± 0.04 mM
- free fatty acid levels (C57Bl/6J male mice; vehicle 1.59±0.06, p=0.03): 1.44±0.03 mEq/L
- blood glucose (C57Bl/6J male mice; vehicle 9.94±0.28, p=0.05): 9.19 ± 0.58 mM
